In patent US20070213283A1, “Macrolides substituted at the 4"-position” (priority 2003, published 2007) one finds MIC data, which are given here for eleven compounds.

Counter-ions that a name gives are not always drawn. Like-named read-outs stand apart in the source and are kept apart here.

Test in all cases: MIC, standard broth dilution method in microtitre
What all share (type): cell-based
For orientation: Broth dilution looks for growth in wells or tubes with falling amounts of substance.

One experiment deals with E. faecalis ATCC 29212. The conditions noted are these: Enterococcus faecalis, ATCC29212. How it is done:
(§1) Using a standard broth dilution method in microtitre, compounds were tested for antibacterial activity. The compounds in the above examples gave minimum inhibitory concentrations (MICs) less than 1 microgram per millilitre against erythromycin-sensitive and erythromycin-resistant strains of Streptococcus pneumoniae and Streptococcus pyogenes.
(§2) In addition, the MIC (μg/mL) of test compounds against various organisms was determined including:
(§3) S. aureus Smith ATCC 13709, S. pneumoniae SP030, S. pyogenes 3565, E. faecalis ATCC 29212, H. influenzae ATCC 49247, M. catarrhalis ATCC 23246.

In a further experiment the test system is H. influenzae ATCC 49247. The settings on record: Haemophilus influenzae, ATCC49247. Here is the method: as §1, §2, §3
The next experiment deals with S. pyogenes 3565. The conditions noted are these: Streptococcus pyogenes. How it is done: as §1, §2, §3
The test system of another experiment is S. pneumoniae SP030. The conditions noted are these: Streptococcus pneumoniae. How it is done:
as §1, §2, §3

Experiment [1] has as its system M. catarrhalis ATCC 23246. The conditions noted are these: Moraxella catarrhalis, ATCC23246. Here is the method: as §1, §2, §3
Experiment [2] deals with S. aureus Smith ATCC 13709. The conditions noted are these: Staphylococcus aureus, ATCC13709. How it is done: as §1, §2, §3
Experiment [3] deals with erythromycin resistant strains of Streptococcus pneumoniae. How it is done:
as §1

Experiment [4] relates to erythromycin resistant strains of Streptococcus pyogenes. Here is the method:
as §1

Where [5] appears, read: H. influenzae ATCC 49247, broth dilution in microtitre, read-out: MIC.

On to `CC[C@@H]1OC(=O)[C@H](C)[C@H](O[C@@H]2O[C@H](C)[C@H](OC(=O)CCNCCSc3ccc4c(c3)c(=O)c(C(=O)O)cn4CC)[C@@](C)(OC)O2)[C@@H](C)[C@H](O[C@H]2O[C@@H](C)C[C@@H](N(C)C)[C@H]2O)[C@](C)(OC)C[C@H](C)C(=O)[C@@H](C)[C@@H]2NC(=O)O[C@@]12C` [Example 9, 4″-O-{3-[2-(3-Carboxy-1-ethyl-4-oxo-1,4-dihydro-quinolinylsulfanyl)ethylamino]propionyl}-6-O-methyl-11-desoxy-11-(R)amino-erythromycin A11,12-carbamate bis trifluoroacetate salt], for which the MIC was at most 1 µg/mL against E. faecalis ATCC 29212; at most 2 µg/mL with H. influenzae ATCC 49247; at most 1 µg/mL against S. pyogenes 3565; at most 1 µg/mL with S. pneumoniae SP030; at most 2 µg/mL in experiment [1]; at most 1 µg/mL in experiment [2]. Moreover, the MIC in experiment [3] and in experiment [4] was at most 0.25 µg/mL each time.

With `CC[C@@H]1OC(=O)[C@H](C)[C@H](O[C@@H]2C[C@](C)(OC)[C@H](OC(=O)CCNCCSc3cnc4c(c3)c(=O)c(C(=O)O)cn4CC)[C@H](C)O2)[C@@H](C)[C@H](O[C@@H]2O[C@H](C)C[C@H](N(C)C)[C@@H]2O)[C@@](C)(OC)C[C@H](C)C(=O)[C@H](C)[C@@H](O)[C@]1(C)O` [Example 5, 4″-O-{3-[2-(3-Carboxy-1-ethyl-4-oxo-1,4-dihydro-[1,8]naphthyridin-6-ylsulfanyl)ethylamino]propionyl}-6-O-methyl-erythromycin A monoformate salt], the MIC is at most 1 µg/mL against E. faecalis ATCC 29212; at most 1 µg/mL in the experiment on S. pyogenes 3565; at most 1 µg/mL in the experiment on S. pneumoniae SP030; at most 1 µg/mL in experiment [2]; at most 0.25 µg/mL in experiment [3]; at most 0.25 µg/mL in experiment [4].

On to `CC[C@H]1OC(=O)[C@H](C)[C@@H](O[C@H]2C[C@@](C)(OC)[C@@H](OC(=O)CCOCCNc3ccc4c(c3)c(=O)c(C(=O)O)cn4C3CC3)[C@H](C)O2)[C@@H](C)[C@@H](O[C@@H]2O[C@H](C)C[C@H](N(C)C)[C@H]2O)[C@](C)(O)C[C@@H](C)CN(C)[C@H](C)[C@@H](O)[C@]1(C)O` [Example 19, 4″-O-{3-[2-(3-Carboxy-1-cyclopropyl-4-oxo-1,4-dihydro-6-quinolinylamino)ethoxy]propionyl}-azithromycin], for which the MIC is at most 1 µg/mL in the experiment with E. faecalis ATCC 29212; at most 2 µg/mL in the experiment with H. influenzae ATCC 49247 (setting [5]); at most 1 µg/mL against S. pyogenes 3565; at most 1 µg/mL against S. pneumoniae SP030; at most 2 µg/mL in experiment [1]; at most 1 µg/mL in experiment [2]. Also, the MIC in experiment [3] and in experiment [4] was at most 0.25 µg/mL each time.

Consider `CC[C@H]1OC(=O)[C@H](C)[C@@H](O[C@H]2C[C@@](C)(OC)[C@@H](OC(=O)CCOCCNc3cc4c(=O)c(C(=O)O)cn(C5CC5)c4cc3Cl)[C@H](C)O2)[C@H](C)[C@@H](O[C@@H]2O[C@H](C)C[C@H](N(C)C)[C@H]2O)[C@](C)(O)C[C@@H](C)CN(C)[C@H](C)[C@@H](OC)[C@]1(C)O` [Example 23, 4″-O-{3-[2-(3-Carboxy-7-chloro-1-cyclopropyl-4-oxo-1,4-dihydro-6-quinolinylamino)ethoxy]propionyl}-11-O-methyl-azithromycin], for which the MIC against E. faecalis ATCC 29212 is at most 1 µg/mL; in the experiment with H. influenzae ATCC 49247 (setting [5]) it was at most 2 µg/mL; against S. pyogenes 3565 it was at most 1 µg/mL; against S. pneumoniae SP030 it was at most 1 µg/mL; in experiment [1], at most 2 µg/mL; in experiment [2], at most 1 µg/mL. Moreover, the MIC in experiment [3] and in experiment [4] was at most 0.25 µg/mL throughout.

`CC[C@@H]1OC(=O)[C@H](C)[C@H](O[C@@H]2C[C@](C)(OC)[C@H](OC(=O)CCNCCOc3ccc4c(=O)c(C(=O)O)cn(CC)c4c3)[C@H](C)O2)[C@@H](C)[C@H](O[C@@H]2O[C@H](C)C[C@H](N(C)C)[C@@H]2O)[C@](C)(OC)C[C@H](C)C(=O)[C@H](C)[C@@H](O)[C@]1(C)O` [Example 17, 4″-O-{3-[2-(3-Carboxy-1-ethyl-4-oxo-1,4-dihydro-7-quinolinyloxy)ethylamino]propionyl}-6-O-methyl-erythromycin A]: the MIC was at most 1 µg/mL in the experiment with E. faecalis ATCC 29212; at most 2 µg/mL in the experiment with H. influenzae ATCC 49247 (setting [5]); at most 1 µg/mL against S. pyogenes 3565; at most 1 µg/mL against S. pneumoniae SP030; at most 2 µg/mL in experiment [1]; at most 1 µg/mL in experiment [2]. Also, the MIC in experiment [3] and in experiment [4] was at most 0.25 µg/mL each time.

Take `CC[C@H]1OC(=O)[C@H](C)[C@@H](O[C@H]2C[C@@](C)(OC)[C@@H](OC(=O)CCOCCNc3cc4c(=O)c(C(=O)O)cn(C5CC5)c4cc3Cl)[C@H](C)O2)[C@@H](C)[C@@H](O[C@@H]2O[C@H](C)C[C@H](N(C)C)[C@H]2O)[C@](C)(O)C[C@@H](C)CN(C)[C@H](C)[C@@H](O)[C@]1(C)O` [Example 18, 4″-O-{3-[2-(3-Carboxy-7-chloro-1-cyclopropyl-4-oxo-1,4-dihydro-4-quinolinylamino)ethoxy]propionyl}-azithromycin]: the MIC is at most 1 µg/mL against E. faecalis ATCC 29212; at most 2 µg/mL in the experiment on H. influenzae ATCC 49247 (setting [5]); at most 1 µg/mL with S. pyogenes 3565; at most 1 µg/mL in the experiment on S. pneumoniae SP030; at most 2 µg/mL in experiment [1]; at most 1 µg/mL in experiment [2]. Moreover, the MIC in experiment [3] and in experiment [4] was at most 0.25 µg/mL throughout.

For the compound `CC[C@H]1OC(=O)[C@H](C)[C@@H](O[C@H]2C[C@@](C)(OC)[C@@H](OC(=O)CCOCCOc3cc4c(=O)c(C(=O)OCOC(=O)C(C)(C)C)cn(C5CC5)c4cc3Cl)[C@H](C)O2)[C@H](C)[C@@H](O[C@@H]2O[C@H](C)C[C@H](N(C)C)[C@H]2O)[C@](C)(O)C[C@@H](C)CN(C)[C@H](C)[C@@H](O)[C@]1(C)O` [Example 28, 4″-O-(3-{2-[7-chloro-1-cyclopropyl-3-(2,2-dimethyl-propionyloxymethoxycarbonyl)-4-oxo-1,4-dihydro-quinolin-6-yloxy]-ethoxy}-propionyl)-azithromycin], the MIC was at most 1 µg/mL with E. faecalis ATCC 29212; at most 1 µg/mL against S. pyogenes 3565; at most 1 µg/mL in the experiment with S. pneumoniae SP030; at most 1 µg/mL in experiment [2]; at most 0.25 µg/mL in experiment [3]; at most 0.25 µg/mL in experiment [4].

Take `CC[C@H]1OC(=O)[C@H](C)[C@@H](O[C@H]2C[C@@](C)(OC)[C@@H](OC(=O)CCOCCOc3cc4c(=O)c(C(=O)O)cn(C5CC5)c4cc3Cl)[C@H](C)O2)[C@H](C)[C@@H](O[C@@H]2O[C@H](C)C[C@H](N(C)C)[C@H]2O)[C@](C)(O)C[C@@H](C)CN(C)[C@H](C)[C@@H](O)[C@]1(C)O` [Example 27, 4″-O-{3-[2-(3-Carboxy-7-chloro-1-cyclopropyl-4-oxo-1,4-dihydro-quinolin-6-yloxy)ethoxy]-propionyl}-azithromycin]: the MIC in the experiment with E. faecalis ATCC 29212 is at most 1 µg/mL; in the experiment with H. influenzae ATCC 49247 (setting [5]), at most 2 µg/mL; against S. pyogenes 3565, at most 1 µg/mL; in the experiment with S. pneumoniae SP030 it was at most 1 µg/mL; in experiment [1], at most 2 µg/mL; in experiment [2], at most 1 µg/mL. The MIC in experiment [3] and in experiment [4] was at most 0.25 µg/mL in each case.

As to `CC[C@@H]1OC(=O)[C@H](C)[C@H](O[C@@H]2C[C@](C)(OC)[C@H](OC(=O)CCNCCOc3ccc4c(c3)c(=O)c(C(=O)O)cn4CC)[C@H](C)O2)[C@@H](C)[C@H](O[C@@H]2O[C@H](C)C[C@H](N(C)C)[C@@H]2O)[C@](C)(OC)C[C@H](C)C(=O)[C@H](C)[C@@H](O)[C@]1(C)O` [Example 15, 4″-O-{3-[2-(3-Carboxy-1-ethyl-4-oxo-1,4-dihydro-6-quinolinyloxy)ethylamino]propionyl}-6-O-methyl-erythromycin A monoformate salt], the MIC in experiment [3] and in experiment [4] was at most 0.25 µg/mL in each case.

As for `CC[C@@H]1OC(=O)[C@H](C)[C@H](O[C@H]2C[C@](C)(OC)[C@@H](OC(=O)CCNCCSc3cnc4c(c3)c(=O)c(C(=O)O)cn4CC)[C@@H](C)O2)[C@@H](C)[C@H](O[C@H]2O[C@@H](C)C[C@@H](N(C)C)[C@H]2O)[C@@](C)(O)C[C@H](C)CN(C)[C@H](C)[C@@H](O)[C@@]1(C)O` [Example 4, 4″-O-{3-[2-(3-Carboxy-1-ethyl-4-oxo-1,4-dihydro-[1,8]naphthyridin-6-ylsulfanyl)ethylamino]propionyl}-azithromycin tris trifluoroacetate salt], the MIC with E. faecalis ATCC 29212 is at most 1 µg/mL; in the experiment with H. influenzae ATCC 49247 (setting [5]), at most 2 µg/mL; in the experiment with S. pyogenes 3565, at most 1 µg/mL; with S. pneumoniae SP030, at most 1 µg/mL; in experiment [1], at most 2 µg/mL; in experiment [2], at most 1 µg/mL.

With `CC[C@@H]1OC(=O)[C@H](C)[C@H](O[C@@H]2C[C@](C)(O)[C@H](OC(=O)CCNCCSc3ccc4c(c3)c(=O)c(C(=O)OC)cn4CC)[C@H](C)O2)[C@@H](C)[C@H](O[C@@H]2O[C@H](C)C[C@H](N(C)C)[C@@H]2O)[C@](C)(OC)C[C@H](C)C(=O)[C@H](C)[C@@H](O)[C@]1(C)O` [Example 7, 4″-O-{3-[2-(3-Carboxyl-1-ethyl-4-oxo-1,4-dihydro-6-quinolinylsulfanyl)ethylamino]propionyl}-6-O-methyl-erythromycin A methyl ester], the MIC with E. faecalis ATCC 29212 is at most 1 µg/mL; against S. pyogenes 3565 it was at most 1 µg/mL; in the experiment on S. pneumoniae SP030, at most 1 µg/mL; in experiment [2], at most 1 µg/mL; in experiment [3] it was at most 0.25 µg/mL; in experiment [4], at most 0.25 µg/mL.
